According to US5578601A, “Nonpeptide bradykinin antagonists” (Sterling Winthrop Inc., priority 1995, dated 1996):
pKi: −log10 of the molar value. Structures can show the parent of a compound that is named as a salt. Where two headings read alike, the source gives them in different places.

Experiments:
bradykinin B2 receptor = molecular target: T1, bradykinin B2 receptor (Homo sapiens, UniProt P30411); test: [3H]-bradykinin radioligand competitive binding to human IMR-90 fetal lung fibroblasts (bradykinin B2 receptor); settings: human IMR-90 cells, 2 h, 4° C, pH 7.4, mean values from 2-3 experiments
T1 construct: These cells contain the bradykinin B2 receptor as previously described; endogenous in cells; host or cells: human IMR-90 fetal lung fibroblasts
T1 sequence (P30411 1-391): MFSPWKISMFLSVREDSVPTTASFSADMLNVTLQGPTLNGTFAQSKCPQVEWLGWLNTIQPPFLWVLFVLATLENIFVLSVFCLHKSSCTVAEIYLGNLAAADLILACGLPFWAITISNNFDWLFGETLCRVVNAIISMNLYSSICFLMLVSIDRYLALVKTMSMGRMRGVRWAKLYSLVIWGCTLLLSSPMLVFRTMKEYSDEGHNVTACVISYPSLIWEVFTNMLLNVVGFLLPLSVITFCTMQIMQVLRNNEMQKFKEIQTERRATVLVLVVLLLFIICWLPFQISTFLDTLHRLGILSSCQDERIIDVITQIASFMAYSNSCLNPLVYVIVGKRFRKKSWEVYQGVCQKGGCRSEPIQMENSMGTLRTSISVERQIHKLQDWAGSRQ
Description: The receptor binding affinity (KI) of the compounds of the present invention was determined in [^3 H]-bradykinin radioligand binding studies using human IMR-90 fetal lung fibroblasts. […] Briefly stated, harvested IMR-90 cells were resuspended to the desired cell concentration in ice cold buffer containing phosphate buffered saline (PBS) pH-7.4, sodium azide (0.02%), 0.1% BSA, PMSF (1 mM), DTT (1 mM), and captopril (1 mM). For competitive inhibition binding studies, cells were incubated with bradykinin (1-2 nM) in the absence or presence of increasing concentrations of competing compound. All assay mixtures were incubated for 2 hours at 4° C. The binding assays were terminated by filtration through Whatman GF/B filters on a Brandel Cell Harvester and the filters were washed with 3×1 ml aliquots of ice cold PBS containing 0.1% BSA. All filters were presoaked in 0.1% polyethylenimine to decrease nonspecific filter binding.

[1] = system: inflammation and hyperalgesia; settings: intraplantar carrageenan; cited from earlier work
nociception/hyperalgesia = settings: several different animal models of nociception/hyperalgesia; cited from earlier work
rhinovirus infection = settings: intranasal, experimentally induced infection; cited from earlier work

| Molecule | pKi (bradykinin B2 receptor; read-out: IMR 90 Ki) | further results |
| --- | --- | --- |
| O=C(NC1CN2CCC1CC2)C(Cc1ccc(Cl)cc1)NC(=NC1CCCCC1)NC1CCCCC1 (stereo not drawn) [Example 22, 4-chlorophenylpropanamide, N-1-azabicyclo[2.2.2]oct-3-yl-α-[[bis(cyclohexylamino)methylene]amino]-, dihydrochloride] | – | pKi (bradykinin B2 receptor; IMR 90 Ki): 5.54 |
| O=C(Nc1cccc2cnccc12)C(Cc1ccc2ccccc2c1)N=C(NC1CCCCC1)NC1CCCCC1 (stereo not drawn) [Example 24, 2-Naphthalenepropanamide, α-[[bis(cyclohexylamino)methylene]amino]-N-5-isoquinolinyl-, monohydrochloride] | 5.60 | – |
| O=C(NCc1nc2ccccc2[nH]1)C(Cc1ccc2ccccc2c1)N=C(NC1CCCCC1)NC1CCCCC1 (stereo not drawn) [Example 25, 2-Naphthalenepropanamide, N-(1H-benzimidazol-2-ylmethyl)-α-[[bis(cyclohexylamino)methylene]amino]-, monohydrochloride] | 5.28 | – |
| NPC-567 | – | antagonism of inflammation and hyperalgesia [1]: antagonized; antinociceptive activity (nociception/hyperalgesia): antinociceptive; beneficial effects on the course of rhinovirus infection (rhinovirus infection): failed to demonstrate beneficial effects |

The next lines start with results.

| pKi (bradykinin B2 receptor; read-out: IMR 90 Ki) | Molecule | further results |
| --- | --- | --- |
| 5.24 | CCCC[P+](CCCC)(CCCC)Cc1ccc(NC(=O)C(Cc2ccc(C(=O)c3ccccc3)cc2)NC(=NC2CCCCC2)NC2CCCCC2)cc1 (stereo not shown) [Example 3, Phosphonium, [[4-[[3-(4-benzoylphenyl)-2-[[bis(cyclohexylamino)methylene]amino]-1-oxopropyl]amino]phenyl]methyl]tributyl-, chloride, monohydrochloride] | – |
| 5.71 | CCCC[P+](CCCC)(CCCC)Cc1ccc(NC(=O)C(Cc2ccc3ccccc3c2)N=C(NCCC)NCCCc2ccccc2)cc1 (stereo not shown) [Example 10, Phosphonium, tributyl[[4-[[3-(2-naphthalenyl)-1-oxo-2-[[[(3-phenylpropyl)amino](propylamino)methylene]amino]propyl]amino]phenyl]methyl]-, chloride, monohydrochloride] | – |
| 6.37 | CCCC[P+](CCCC)(CCCC)Cc1ccc(NC(=O)C(Cc2csc3ccccc23)N=C(NC2CCCCC2)NC2CCCCC2)cc1 (stereo not shown) [Example 13, Phosphonium, [[4-[[3-benzo[b]thien-3-yl-2-[[bis(cyclohexylamino)methylene]amino]-1-oxopropyl]amino]phenyl]methyl]tributyl-, chloride, monohydrochloride] | – |
| 5.52 | CCCC[P+](CCCC)(CCCC)Cc1cccc(NC(=O)C(Cc2ccc3ccccc3c2)N=C(NC2CCCCC2)NC2CCCCC2)c1 (stereo not shown) [Example 17, Phosphonium, [[3-[[2-[[bis(cyclohexylamino)methylene]amino]-3-(2-naphthalenyl)-1-oxopropyl]amino]phenyl]methyl]tributyl-, chloride, monohydrochloride] | – |
